Patent US9695155B2, “Herbicidal substituted pyrimidinyloxy benzene compounds” (E. I. DU PONT DE NEMOURS AND COMPANY, priority 2013, dated 2017)

What was measured:
[1] = tested on: kochia; experiment: Test A preemergence; format: in vivo, Kochia scoparia; conditions: 0 to 100 scale where 0 is no effect and 100 is complete control
Method in brief: (§1)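 Scoring: eye-based comparison with untreated controls, 0 for no effect through 100 for complete control, at about day 10. Treatments: directed soil spray preemergence; foliar spray postemergence on 2–10 cm plants at the one- to two-leaf stage. Medium: loam soil with sand.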

[2] = tested on: Italian ryegrass; experiment: Test A preemergence; format: in vivo, Lolium multiflorum; conditions: 0 to 100 scale where 0 is no effect and 100 is complete control
Method in brief: as §1

[3] = tested on: kochia; experiment: Test A postemergence; format: in vivo, Kochia scoparia
Method in brief: as §1

[4] = tested on: galium; experiment: Test A postemergence; format: in vivo, Galium aparine
Method in brief: as §1

[5] = tested on: blackgrass; experiment: Test C preemergence; format: in vivo, Alopecurus myosuroides; conditions: Alopecurus myosuroides, pre-emergence
Method in brief: (§2)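 Seeds were sown in loam–sand blend and sprayed preemergence, while plants at 1- to 4-leaf stage (2–18 cm) in peat-based medium received postemergence sprays; test chemicals were formulated in a non-phytotoxic solvent with surfactant. After 13–15 days in a greenhouse, injury was rated visually against controls, 0 (no effect) to 100 (complete control).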

[6] = tested on: wheat, winter; experiment: Test C preemergence; format: in vivo, Triticum aestivum; conditions: Triticum aestivum, pre-emergence, preemergence, read-out: Wheat plant response rating
Method in brief: as §2

[7] = tested on: galium; experiment: Test C preemergence; format: in vivo, Galium aparine; conditions: Galium, pre-emergence
Method in brief: as §2

[8] = tested on: giant foxtail; experiment: Test C preemergence; format: in vivo, Setaria faberii; conditions: Setaria faberi, pre-emergence
Method in brief: as §2

[9] = tested on: johnsongrass; experiment: Test C preemergence; format: in vivo, Sorghum halepense; conditions: Sorghum halepense, pre-emergence, preemergence, read-out: Johnsongrass plant response rating
Method in brief: as §2

[10] = tested on: lambsquarters; experiment: Test C preemergence; format: in vivo, Chenopodium album; conditions: Chenopodium album, pre-emergence, preemergence, read-out: Lambsquarters plant response rating
Method in brief: as §2

[11] = tested on: yellow nutsedge; experiment: Test C preemergence; format: in vivo, Cyperus esculentus; conditions: Cyperus, pre-emergence, preemergence, scale 0 (no effect) to 100 (complete control), read-out: Nutsedge, Yellow plant response rating
Method in brief: as §2

[12] = tested on: pigweed; experiment: Test C preemergence; format: in vivo, Amaranthus retroflexus; conditions: Amaranthus retroflexus, pre-emergence, preemergence, read-out: Pigweed plant response rating
Method in brief: as §2

[13] = tested on: ragweed; experiment: Test C preemergence; format: in vivo, Ambrosia elatior; conditions: Ambrosia artemisiifolia, pre-emergence, preemergence, read-out: Ragweed plant response rating
Method in brief: as §2

[14] = tested on: soybean; experiment: Test C preemergence; format: in vivo, Glycine max; conditions: Glycine max, pre-emergence, preemergence, read-out: Soybean plant response rating
Method in brief: as §2

[15] = tested on: barnyardgrass; experiment: Test C preemergence; format: in vivo, Echinochloa crus-galli; conditions: Echinochloa crus-galli, pre-emergence
Method in brief: as §2

[16] = tested on: oilseed rape; experiment: Test C preemergence; format: in vivo, Brassica napus; conditions: Brassica napus, pre-emergence, preemergence, read-out: Oilseed Rape plant response rating
Method in brief: as §2

[17] = tested on: waterhemp; experiment: Test C preemergence; format: in vivo, Amaranthus rudis; conditions: Amaranthus tuberculatus, pre-emergence, preemergence, read-out: Waterhemp plant response rating
Method in brief: as §2

[18] = tested on: velvetleaf; experiment: Test C preemergence; format: in vivo, Abutilon theophrasti; conditions: Abutilon theophrasti, pre-emergence, preemergence, read-out: Velvetleaf plant response rating
Method in brief: as §2

[19] = 31 g ai/ha, visual, approximately 10 days
[20] = 31 g ai/ha, 0 to 100 scale, 0 no effect, 100 complete control
[21] = 125 g ai/ha, 0 to 100 scale where 0 is no effect and 100 is complete control
[22] = 16 g ai/ha, scale 0 to 100 (0 no effect, 100 complete control)
[23] = 62 g ai/ha, scale 0 (no effect) to 100 (complete control)
[24] = 125 g ai/ha, scale 0 (no effect) to 100 (complete control)

Compound: Fc1cccc(Oc2ncc(Cl)cn2)c1-n1cc(C(F)F)nn1 [Compound 141, 5-chloro-2-[2-[4-(difluoromethyl)-1H-1,2,3-triazol-1-yl]-3-fluorophenoxy]pyrimidine]
- Plant response rating, Kochia [1, 19]: 100
- Plant response rating, Kochia ([1]; 125 g ai/ha): 100
- Plant response rating, Ryegrass, Italian [2, 19]: 30
- Plant response rating, Ryegrass, Italian ([2]; 125 g ai/ha): 80
- Plant response rating, Kochia [3, 20]: 100
- Kochia plant response rating [3, 21]: 100
- Plant response rating, Galium [4, 20]: 100
- Galium plant response rating [4, 21]: 100
- pest or weed control at 16 g/ha ([5]; 16 g ai/ha, preemergence, scale 0 to 100 (0 no effect, 100 complete control), read-out: Blackgrass plant response rating): 80%
- pest or weed control at 62 g/ha ([5]; 62 g ai/ha, preemergence, scale 0 (no effect) to 100 (complete control), read-out: Blackgrass plant response rating): 95%
- pest or weed control at 125 g/ha ([5]; 125 g ai/ha, preemergence, scale 0 (no effect) to 100 (complete control), read-out: Blackgrass plant response rating): 95%
- pest or weed control at 31 g/ha ([5]; Preemergence, 31 g ai/ha, scale 0 to 100, 0 no effect, 100 complete control, read-out: Plant response rating, Blackgrass): 95%
- plant injury at 16 g/ha [6, 22]: 0%
- plant injury at 62 g/ha [6, 23]: 40%
- plant injury at 125 g/ha [6, 24]: 60%
- pest or weed control at 16 g/ha ([7]; 16 g ai/ha, preemergence, scale 0 to 100 (0 no effect, 100 complete control), read-out: Galium plant response rating): 98%
- pest or weed control at 62 g/ha ([7]; 62 g ai/ha, preemergence, scale 0 (no effect) to 100 (complete control), read-out: Galium plant response rating): 100%
- pest or weed control at 125 g/ha ([7]; 125 g ai/ha, preemergence, scale 0 (no effect) to 100 (complete control), read-out: Galium plant response rating): 100%
- pest or weed control at 31 g/ha ([7]; Preemergence, 31 g ai/ha, scale 0 to 100, 0 no effect, 100 complete control, read-out: Plant response rating, Galium): 98%
- pest or weed control at 16 g/ha ([8]; 16 g ai/ha, preemergence, scale 0 to 100 (0 no effect, 100 complete control), read-out: Foxtail, Giant plant response rating): 90%
- pest or weed control at 62 g/ha ([8]; 62 g ai/ha, preemergence, scale 0 (no effect) to 100 (complete control), read-out: Foxtail, Giant plant response rating): 100%
- pest or weed control at 125 g/ha ([8]; 125 g ai/ha, preemergence, scale 0 (no effect) to 100 (complete control), read-out: Foxtail, Giant plant response rating): 100%
- pest or weed control at 31 g/ha ([8]; Preemergence, 31 g ai/ha, scale 0 to 100, 0 no effect, 100 complete control, read-out: Plant response rating, Foxtail, Giant): 100%
- pest or weed control at 16 g/ha [9, 22]: 30%
- pest or weed control at 62 g/ha [9, 23]: 100%
- pest or weed control at 125 g/ha [9, 24]: 100%
- pest or weed control at 16 g/ha [10, 22]: 85%
- pest or weed control at 62 g/ha [10, 23]: 100%
- pest or weed control at 125 g/ha [10, 24]: 100%
- pest or weed control at 62 g/ha ([11]; 62 g ai/ha): 70%
- pest or weed control at 125 g/ha ([11]; 125 g ai/ha): 95%
- pest or weed control at 16 g/ha [12, 22]: 100%
- pest or weed control at 62 g/ha [12, 23]: 100%
- pest or weed control at 125 g/ha [12, 24]: 100%
- pest or weed control at 16 g/ha [13, 22]: 85%
- pest or weed control at 62 g/ha [13, 23]: 100%
- pest or weed control at 125 g/ha [13, 24]: 100%
- plant injury at 16 g/ha [14, 22]: 65%
- plant injury at 62 g/ha [14, 23]: 90%
- plant injury at 125 g/ha [14, 24]: 98%
- pest or weed control at 16 g/ha ([15]; 16 g ai/ha, preemergence, scale 0 to 100 (0 no effect, 100 complete control), read-out: Barnyardgrass plant response rating): 80%
- pest or weed control at 62 g/ha ([15]; 62 g ai/ha, preemergence, scale 0 (no effect) to 100 (complete control), read-out: Barnyardgrass plant response rating): 100%
- pest or weed control at 125 g/ha ([15]; 125 g ai/ha, preemergence, scale 0 (no effect) to 100 (complete control), read-out: Barnyardgrass plant response rating): 100%
- pest or weed control at 31 g/ha ([15]; Preemergence, 31 g ai/ha, scale 0 to 100, 0 no effect, 100 complete control, read-out: Plant response rating, Barnyardgrass): 100%
- plant injury at 16 g/ha [16, 22]: 100%
- plant injury at 62 g/ha [16, 23]: 100%
- plant injury at 125 g/ha [16, 24]: 100%
- pest or weed control at 16 g/ha [17, 22]: 100%
- pest or weed control at 62 g/ha [17, 23]: 100%
- pest or weed control at 125 g/ha [17, 24]: 100%
- pest or weed control at 16 g/ha [18, 22]: 100%
- pest or weed control at 62 g/ha [18, 23]: 100%
- pest or weed control at 125 g/ha [18, 24]: 100%
